The text below walks through data of US6844174B2, “Fermentation process for lipstatin and method of extracting lipstatin from a fermentation broth” (Biogal Gyogyszergyar Rt., priority 2001, dated 2005).

The series concerns Streptomyces toxytricini. The series is described as follows: toxic level of linoleic acid in liquid culture of Streptomyces toxytricini. Format: cell-based. The text has this: With Streptomyces toxytricini, the toxic level of linoleic acid in liquid culture is about 2,300-3,000 ppm. […] For this reason, the pH of lipstatin fermentation was controlled so that the linoleic acid being liberated from fats and oils was enough for the lipstatin biosynthesis but not raised to a toxic level.

Regarding `CCCCC/C=C\C/C=C\CCCCCCCC(=O)O` [linoleic acid], the “toxic level of linoleic acid in liquid culture” value was 2,300-3,000 ppm.
